Laboratory results published in patent US20230226012A1, “USE OF USNIC ACID, A SALT OF USNIC ACID, OR A FORMULATION THEREOF IN THE PREPARATION OF ANTI-AVIAN COCCIDIOSIS DRUGS OR FEED ADDITIVES” (priority 2022, published 2023).

Test system: Eimeria tenella
Test: Anticoccidial test in chickens orally inoculated with sporulated oocysts of Eimeria tenella (anticoccidial index, ACI)
Format: in vivo
Conditions: for Lesion value: cecum, 7th day after infection; for Oocyst value: converted according to Table 2; for Clinical symptoms (bloody stool): after infection
Description: Male chicks from layer aged 1 day were selected and raised to 12-day-old. Each was weighed, while excluding thin or overweight individuals, healthy chickens with individual weight differences of less than 10 g were selected, and randomly divided into thirteen groups with each group including thirty chickens. Among them, ten groups were used as drug groups, one group as a model group, one group as a diclazuril group, and one group as a blank control group. Each chicken aged 12 days of the drug groups was subject to drug administration through mixing with feed, while that of the diclazuril group was administrated though drinking water. Each chicken aged 14 days in the drug groups, the diclazuril group and the model group was orally inoculated with 1.0×10^4 sporulated oocysts of Eimeria tenella. Each experimental chicken in all groups was free to feed and drink water until the test was over on the seventh day.
The anticoccidial index (ACI) criteria were calculated by
the calculation formula of Merck Corporation (USA), that is:
ACI=(relative weight gain rate+survival rate)×100−(lesion value+oocyst value).
Among them, the relative weight gain rate was calculated by
weighing each chicken at the beginning and end of the test, respectively, to calculate the average and relative weight gain rates. Relative weight gain rate=(test group weight gain rate/blank control group weight gain rate)×100%.
The survival rate was calculated by
recording the number of dead chickens in each group, performing an autopsy to determine the cause of death, and calculating the survival rate. Survival rate=(number of chickens alive at the end of the test/number of chickens in the test group)×100%
The lesion value was calculated by
slaughtering each chicken on the 7th day after infection to take the cecum (as shown in FIG. 5-6), and scoring the intestinal lesion of each chicken according to the lesion scoring method designed by […] and Reid (1970), and converting the lesion score into the lesion value.
Lesion scoring: (in case of lesion inconsistence between both sides of cecum, the more severe shall prevail):
0 point: no macroscopic lesions;
1 point: there are a few of petechiae scattered in the cecal wall, the cecal wall is not thickened, and the contents therein are normal;
2 points: the lesion number is more, the cecum contents are obviously bloody, the cecal wall is slightly thickened, and the contents therein are normal;
3 points: there is a lot of blood or there is a cecum core (blood clot or off-white cheese-like banana-shaped blocks) in the cecum, the cecal wall is obviously thickened, and the feces contents in the cecum are poor;
4 points: the cecum swells due to being full of a large amount of blood or cecum core with or without fecal residue, and it is also scored 4 points when the chicken dies for coccidiosis.
Lesion value (0-40)=average lesion score (0-4) for each test group×10
The oocyst value and the relative oocyst production (ROP) were calculated by collecting the chicken feces of each group, counting the number of oocysts in the feces according to McMaster counting, calculating the number of oocysts per gram of feces of each group, and obtaining the oocyst value by conversion according to Table 2.
Relative oocyst production (ROP)=(average oocyst production in the test group/average oocyst production in the model group)×100%. ROP≥15%, resistant to drugs; ROP<15%, no drug resistance.
The criteria for determining the drug efficacy were: ACI>180, high efficacy against coccidiosis; 160<ACI<180, medium efficacy against coccidiosis; 120<ACI<160, low efficacy against coccidiosis; ACI<120, inefficacy against coccidiosis.
Male chicks from layer aged 1 day were selected and raised to 12-day-old. Each was weighed, while excluding thin or overweight individuals, healthy chickens with individual weight differences of less than 10 g were selected, and randomly divided into 6 groups with each group including thirty chickens. […]

[1] = Example 2, Drug groups 1, 2 5 kg/ton in feed, Drug group 3 1:400 drinking water, diclazuril 0.2 ml/L
[2] = Example 3, Drug groups 5 kg/ton in feed, diclazuril 0.2 ml/L drinking water

N#CC(c1ccc(Cl)cc1)c1c(Cl)cc(-n2ncc(=O)[nH]c2=O)cc1Cl (stereo not drawn) [Diclazuril]
Effect against avian coccidiosis (conclusion) (Example 1): high therapeutic effect
Clinical symptoms (bloody stool, food intake) (Example 1, 4th to 6th day after infection): no bloody stool
Bloody stool (feces observation) (Example 1, 5th day after Eimeria challenge, partially mixed with blood / a large amount of feces mixed with blood / bloodless): bloodless
ACI value (Example 1, ACI=(relative weight gain rate+survival rate)×100−(lesion value+oocyst value), herbs 5 kg/ton in feed, diclazuril 0.2 ml/L drinking water): 201.2
Relative oocyst production (ROP) (Example 1, average oocyst production relative to model group, herbs 5 kg/ton in feed, diclazuril 0.2 ml/L drinking water): 0.0%
Lesion value (Example 1, lesion value (0-40) = average lesion score ×10, herbs 5 kg/ton in feed, diclazuril 0.2 ml/L drinking water): 0.0
Relative weight gain rate (Example 1, chickens, 1.0×10^4 oocysts at 14 days of age, herbs 5 kg/ton mixed with feed, diclazuril 0.2 ml/L drinking water, 9 days, relative to blank control): 101.2%
Survival rate (Example 1, chickens, 1.0×10^4 oocysts, herbs 5 kg/ton in feed, diclazuril 0.2 ml/L drinking water, 9 days): 100%
Criteria (drug efficacy by ACI) (Example 1, herbs 5 kg/ton in feed, diclazuril 0.2 ml/L drinking water): High (ACI>180, high efficacy against coccidiosis)
Oocyst value (Example 1, oocysts per gram of feces relative to model group, herbs 5 kg/ton in feed, diclazuril 0.2 ml/L drinking water): 0
Effect against avian coccidiosis (conclusion) (Example 2): high therapeutic effect
ACI value [1]: 198.9
Criteria (drug efficacy by ACI) [1]: High (ACI>180, high efficacy against coccidiosis)
Survival rate (Example 2, Drug groups 1, 2 5 kg/ton in feed, Drug group 3 1:400 drinking water, diclazuril 0.2 ml/L drinking water): 100%
Clinical symptoms (bloody stool) (Example 2): no bloody stool
Lesion value [1]: 0
Relative weight gain rate (Example 2, chickens, 1.0×10^4 oocysts, Drug groups 1, 2 5 kg/ton in feed, Drug group 3 1:400 drinking water, diclazuril 0.2 ml/L drinking water, 9 days): 98.9%
Oocyst value [1]: 0
Relative oocyst production (ROP) (Example 2, relative to model group, Drug groups 1, 2 5 kg/ton in feed, Drug group 3 1:400 drinking water, diclazuril 0.2 ml/L): 0%
ACI value [2]: 198.4
Criteria (drug efficacy by ACI) [2]: High (ACI>180, high efficacy against coccidiosis)
Survival rate [2]: 100%
Clinical symptoms (bloody stool) (Example 3): no bloody stool
Lesion value [2]: 0
Relative weight gain rate (Example 3, chickens, 1.0×10^4 oocysts, Drug groups 1-3 5 kg/ton in feed, diclazuril 0.2 ml/L drinking water, 9 days): 98.4%
Oocyst value [2]: 0
Relative oocyst production (ROP) (Example 3, relative to model group, Drug groups 5 kg/ton in feed, diclazuril 0.2 ml/L drinking water): 0%
